PubChem BioAssay (NCI)
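Test compounds were applied to cells in 96-well plates for 48 hours at 5 doses. TGI: total growth inhibition.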 Where a SMILES comes first, the peptide text is derived from it. [ ]: non-standard residue; d: D form. The star is where a group is joined. β3hI = CC[CH](C)[CH](N)CC(=O)O; Octanoyl = CCCCCCCC(=O)*; Aib = CC(C)(N)C(=O)O; tBu = CC(C)(C)*

Assays:
Assay in all cases: NCI tumour cell line growth inhibition, 48 h
MDA-N = tested on: MDA-N
SF-268 CNS = tested on: SF-268 CNS
NCI/ADR-RES ovarian = tested on: NCI/ADR-RES ovarian
HS 578T breast = tested on: HS 578T breast
TK-10 renal = tested on: TK-10 renal
SR leukemia = tested on: SR leukemia
COLO 205 colon = tested on: COLO 205 colon
T-47D breast = tested on: T-47D breast
CAKI-1 renal = tested on: CAKI-1 renal
IGROV1 ovarian = tested on: IGROV1 ovarian
SNB-75 CNS = tested on: SNB-75 CNS
MDA-MB-231 breast = tested on: MDA-MB-231 breast
K-562 leukemia = tested on: K-562 leukemia
ACHN renal = tested on: ACHN renal
SN12C renal = tested on: SN12C renal
BT-549 breast = tested on: BT-549 breast
NCI-H226 lung = tested on: NCI-H226 lung
HCT-15 colon = tested on: HCT-15 colon
NCI-H460 lung = tested on: NCI-H460 lung

| Structure (SMILES) | TGI (MDA-N) [µM] | TGI (SF-268 CNS) [µM] | TGI (NCI/ADR-RES ovarian) [µM] | TGI (HS 578T breast) [µM] | TGI (TK-10 renal) [µM] | TGI (SR leukemia) [µM] | TGI (COLO 205 colon) [µM] | TGI (T-47D breast) [µM] | TGI (CAKI-1 renal) [µM] | TGI (IGROV1 ovarian) [µM] | TGI (SNB-75 CNS) [µM] | TGI (MDA-MB-231 breast) [µM] | TGI (K-562 leukemia) [µM] | TGI (ACHN renal) [µM] | TGI (SN12C renal) [µM] | TGI (BT-549 breast) [µM] | TGI (NCI-H226 lung) [µM] | TGI (HCT-15 colon) [µM] | TGI (NCI-H460 lung) [µM] |
| --- | --- | --- | --- | --- | --- | --- | --- | --- | --- | --- | --- | --- | --- | --- | --- | --- | --- | --- | --- |
| CC1(C)CN=C(Nc2cccc(C(F)(F)F)c2)S1 | > 100 | > 100 | > 100 | > 100 | > 100 | > 100 | > 100 | > 100 | > 100 | > 100 | > 100 | 16.3 | > 100 | > 100 | > 100 | > 100 | > 100 | > 100 |  |
| O=C(CCc1cccc(O)c1)NCCc1ccc(O)cc1 | > 100 | > 100 | > 100 | > 100 | > 100 | > 100 | > 100 | > 100 | > 100 | > 100 |  | > 100 | > 100 | > 100 | > 100 | > 100 | > 100 | > 100 | > 100 |
| COc1ccc2[nH]c3c(c2c1)COc1ccccc1C3=O | > 100 | > 100 | > 100 | > 100 | > 100 | > 100 | > 100 | > 100 | > 100 | > 100 | > 100 | > 100 | > 100 | > 100 | > 100 | > 100 | > 100 | > 100 | > 100 |
| O=C(c1cccnc1)N1N=C(c2ccc(Cl)cc2)CC1(O)c1cc(F)c(Cl)cc1Cl (stereo not drawn) | > 100 | 75 | > 100 | > 100 | > 100 | > 100 | 28.7 | 20.7 | > 100 | 82.1 | 37.3 | 38.9 | > 100 | 53.8 | 37.5 | 69.1 | 43.3 | > 100 | > 100 |
| COC(=O)C(Cc1ccccc1)OC(=O)C(N)CC(=O)O (stereo not drawn) | > 100 | > 100 | > 100 | > 100 | > 100 | > 100 | > 100 | > 100 | > 100 | > 100 | > 100 | > 100 | > 100 | > 100 | > 100 | > 100 | > 100 | > 100 | > 100 |
| CCOC(=O)CCC(NC(=O)c1ccc(Nc2nc3ccccc3nc2-c2cccs2)cc1)C(=O)OCC (stereo not drawn) | > 100 | > 100 | > 100 | > 100 | > 100 | > 100 | > 100 | > 100 | > 100 | > 100 | > 100 | > 100 | > 100 | > 100 | > 100 | > 100 | > 100 | > 100 | > 100 |
| CCC(C)C(CC(=O)N1CCCC1C(=O)NC(C(=O)NC(C(=O)NCC(=O)NC(CC(N)=O)C(=O)NC(C(=O)NC(C(=O)NC(CCCCN)C(N)=O)C(C)CC)C(C)CC)C(C)C)C(C)CC)NC(=O)C(N)C(C)CC (stereo not drawn) (H-I[β3hI]PIVGNIIK-NH2; configuration not given here) | > 50 | > 50 | > 50 | > 50 | > 50 | > 50 | > 50 | > 50 | > 50 | > 50 |  | > 50 |  | > 50 | > 50 | > 50 | > 50 | > 50 |  |
| O=[N+]([O-])c1cc(-[n+]2cc([O-])on2)ccc1F | 30.7 | 28.9 | 52 | 61.5 | 33.1 | > 100 | 35.2 | 15.5 | 4.2 | 28.3 | 27 | 38 | > 100 | 30.7 | 31.2 | 31.3 | 47 | 52.8 | 39.3 |
| O=C1C=C(NCCc2cc(Br)c(O)c(Br)c2)C(=O)c2ncccc21 | 1.23 | 21.9 | 27.5 | 8.77 | 13.8 | 7.31 | 3.25 | 43.4 | 17.5 | 6.31 | 3.13 | 20.3 | 10 | 22 | 2.95 | 5.07 | 3.72 | 18.2 | 4.8 |
| CCOC(=O)CCC(NC(=O)c1ccc(OCc2nc3ccccc3n3cccc23)cc1)C(=O)OCC (stereo not drawn) | > 100 | > 100 | > 100 | > 100 | > 100 | > 100 | > 100 | > 100 | > 100 | > 100 | > 100 | > 100 | > 100 | > 100 | > 100 | > 100 | > 100 | > 100 | > 100 |
| CN(C1=NCCO1)c1cccc2c1CCCC2 | > 10 | > 10 | > 10 | > 10 | > 10 | > 10 | 3.4 | > 10 | > 10 | 8.35 |  | 5.28 | > 10 | 8.09 | > 10 | > 10 | 6.14 | > 10 | > 10 |
| COc1cc2c(c3c1c(=O)c1ccccc1n3C)C=CC1(CCCCC1)O2 | 8.08 | > 10 | > 10 | 7.49 | > 10 | 6.39 | > 10 | > 10 | > 2.29 | > 10 | 8.46 | > 10 | 6.36 | > 10 | > 10 | > 8.59 | > 10 | > 10 | > 10 |
| CCCCn1c2c(n(CCCC)c1=S)-c1c(n(CCCC)c(=S)n1CCCC)SSSS2 | 23.2 | 21.4 | 71.5 | 46.3 | 22.9 | > 100 | 1.68 | 1.82 |  | 4.2 | 37.7 | 2.28 |  | 7 | 14.7 | 28.1 | 80.8 | 4.45 | > 93.6 |
| Cc1ccc(S(=O)(=O)OC2C(C3COC(C)(C)O3)OC3OC(C)(C)OC32)cc1 (stereo not drawn) | > 100 | > 100 | > 100 | > 100 | > 100 | > 100 |  | > 100 | > 100 | > 100 | > 100 | > 100 | > 100 | > 100 | > 100 | > 100 | > 100 | > 100 | > 100 |
| CN(C)c1ccc(/C=C(\NC(=O)c2ccccc2)C2NC(Cc3c[nH]c4ccccc34)C(=O)O2)cc1 (stereo not drawn) | > 100 | > 100 | > 100 | > 54.9 | > 38.7 | > 100 | > 39.3 | > 100 | > 100 | > 100 | > 100 | > 100 | > 100 | > 100 | > 100 | > 45.2 | > 100 | > 93.5 | > 74.5 |
| Cn1c(-c2ccc(/C=N\N3CCN(/N=C/c4ccc(-c5c[n+]6ccsc6n5C)cc4)CC3)cc2)c[n+]2ccsc12 | > 100 | > 100 | > 100 | 80.8 | > 100 | > 100 | 36.3 | 53.8 | > 100 | > 100 | 93.1 | 78.5 | 34.7 | > 100 | > 100 | 90.3 | > 100 | > 100 | > 100 |
| CCCCCCCC(=O)NC(C)(C)C(=O)NC(COC(C)(C)C)C(=O)NC(CC(C)C)C(=O)NC(C)(C)C(=O)NC(COC(C)(C)C)C(=O)NC(COC(C)(C)C)C(=O)NC(CC(C)C)C(=O)NC(C)(C)C(=O)NC(COC(C)(C)C)C(=O)NC(C(=O)NC(CC(C)C)C(=O)OC)C(C)CC (stereo not drawn) (Octanoyl-[Aib]S(tBu)L[Aib]S(tBu)S(tBu)L[Aib]S(tBu)IL-OMe; configuration not given here) | > 25 | > 25 | > 25 | > 25 | 21.8 | 17.9 | 15.8 | 23.5 | > 25 | 12.5 | 16.4 | 15.9 | > 25 | 20.8 | 24.9 | 13.1 | 21.1 | > 25 | 13.8 |
| COc1ccc(/C=C/C(=O)N[C@@H]2C(=O)N3[C@@H]2SC(C)(C)[C@@H]3C(=O)O)cc1 | > 100 | > 100 | > 100 | > 100 | > 100 | > 100 | > 100 | > 100 | > 100 |  | > 100 | > 100 | > 100 | > 100 | > 100 | > 100 | > 100 | > 100 | > 100 |
| Oc1ccc(Cn2c(-c3ccc(O)c(O)c3)nc3ccccc32)cc1O | > 100 | > 100 | > 100 | 35.2 | 38 | 18.2 | 31.1 | 45.1 | 54.6 | 66.4 | 39.4 | 43.3 | 55.9 | 60.2 | 40.6 | 51 | 22.4 | > 100 | 63.4 |
| CN(/N=C/C=N/N(C)C1=NCCCCN1)C1=NCCCCN1 | > 100 | > 100 | > 100 | > 100 | > 100 | > 100 | > 100 | > 100 | > 100 | > 100 | > 100 | > 100 | > 100 | > 100 | > 100 | > 100 | > 100 | > 100 | > 100 |
| Cc1c2c(n(Cc3ccccn3)c1C)NN=C(C#N)S2(=O)=O | > 100 | > 100 | > 100 | > 100 | > 100 | > 100 | > 100 | > 100 | > 100 | > 100 | > 100 | > 100 |  | > 100 | > 100 | > 100 | > 100 | > 100 | > 100 |
| CC(C)NC(=O)OCc1c(COC(=O)NC(C)C)n(C)c2c1ccc1ccccc12 | 4.22 | 6.2 | 7.39 | 7.12 | 3.04 | > 100 | 3.83 | 1.48 | 1.94 | 3.23 | 7.11 | 3.6 | > 20 | 2.82 | 5.3 | 1.58 | 5.43 | 3.09 | 7.7 |
| O=C(CCCl)NNC1=NCCN1 | > 100 | > 100 | > 100 | > 100 | > 100 | > 100 | > 100 | > 100 |  | > 100 | > 100 | > 100 | > 100 | > 100 | > 100 | > 100 | > 100 | > 100 | > 100 |
| O=C(Cc1ccc(Cl)c(Cl)c1)N(CCc1ccc(Cl)c(Cl)c1)CCN1CCCC1 | 3.15 | 5.5 | 4.73 | 11.2 | 3.22 | 2.98 | 3.38 | 16.1 | 3.1 | 3.27 | 4.31 | 3.26 | 3.66 | 3.28 |  | 7.04 | 4.91 | 3.7 | 3.39 |
